According to ChEMBL document CHEMBL1154020, “Tricyclic indole and dihydroindole derivatives as new inhibitors of soluble guanylate cyclase” (Bioorg Med Chem Lett, 2009):
Active and inactive are the calls of the source. The rule behind the calls is not given here.

Experiments:
Rattus norvegicus [1] = organism: Rattus norvegicus; test: Inhibition of soluble guanylate cyclase in rat aortic smooth muscle cells assessed as decrease in SNP-induced cGMP production at 100 uM pretreated 30 min before SNP challenge by enzyme immunoassay
Rattus norvegicus [2] = organism: Rattus norvegicus; test: Inhibition of soluble guanylate cyclase in rat aortic smooth muscle cells assessed as decrease in SNP-induced cGMP production at 1 uM pretreated 30 min before SNP challenge by enzyme immunoassay
Rattus norvegicus [3] = organism: Rattus norvegicus; test: Inhibition of soluble guanylate cyclase in rat aortic smooth muscle cells assessed as decrease in cGMP production at 100 uM after 30 mins by enzyme immunoassay
Rattus norvegicus [4] = organism: Rattus norvegicus; test: Inhibition of soluble guanylate cyclase in rat aortic smooth muscle cells assessed as decrease in SNP-induced cGMP production pretreated 30 min before SNP challenge by enzyme immunoassay
Rattus norvegicus [5] = organism: Rattus norvegicus; test: Inhibition of particulate guanylate cyclase in rat aortic smooth muscle cells assessed as decrease in ANF-induced cGMP production at 100 uM pretreated 30 min before ANF challenge by enzyme immunoassay

Compound | Activity (Rattus norvegicus [1]) | Activity (Rattus norvegicus [2]) | Activity (Rattus norvegicus [3]) | Activity (Rattus norvegicus [4]) | Activity (Rattus norvegicus [5])
CCOCn1ccc2c1CCc1cnn(-c3ccccc3)c1-2 | Active | – | – | – | –
CCOCn1ccc2c1CCc1cnoc1-2 | Active | inactive | – | – | –
CCOCn1ccc2c1CCc1cnn(C)c1-2 | Active | Active | – | – | –
CCOCn1ccc2c3oncc3ccc21 | – | – | inactive | Dose-dependent effect | inactive
